Results taken from US9399626B2, “2-thiopyrimidinones” (Pfizer Inc., priority 2011, dated 2016).
Where a name gives a salt, the structure may show the parent alone.

target: T1, MPO (purified from human polynuclear leukocytes) (Homo sapiens, UniProt P05164); assay: MPO Amplex Red Activity Assay; assay type: biochemical; settings: Table 1, 2 μM H2O2, pH 7.4
T1 construct: purified from human polynuclear leukocytes; purchased Calbiochem/EMD Biosciences; host or cells: human polynuclear leukocytes (natural source)
T1 sequence (P05164 279-745 limits assumed): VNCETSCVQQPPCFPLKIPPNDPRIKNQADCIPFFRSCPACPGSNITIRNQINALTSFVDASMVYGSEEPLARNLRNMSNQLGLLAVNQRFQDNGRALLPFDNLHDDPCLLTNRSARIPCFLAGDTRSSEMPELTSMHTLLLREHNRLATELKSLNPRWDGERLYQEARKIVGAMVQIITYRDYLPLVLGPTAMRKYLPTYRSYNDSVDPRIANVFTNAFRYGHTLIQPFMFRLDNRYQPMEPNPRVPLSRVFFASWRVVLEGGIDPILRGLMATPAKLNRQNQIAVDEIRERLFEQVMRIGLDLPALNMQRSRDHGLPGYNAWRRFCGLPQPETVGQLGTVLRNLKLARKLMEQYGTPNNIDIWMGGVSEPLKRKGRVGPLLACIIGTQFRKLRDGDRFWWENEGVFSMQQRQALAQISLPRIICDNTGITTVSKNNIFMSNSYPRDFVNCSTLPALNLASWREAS
T1 sequence (P05164 165-273 limits assumed): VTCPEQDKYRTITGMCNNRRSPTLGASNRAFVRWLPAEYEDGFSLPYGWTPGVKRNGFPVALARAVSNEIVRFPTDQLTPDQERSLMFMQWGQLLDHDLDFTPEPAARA
Procedure, shortened: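 Potency is given as kinact/KI: kobs values from 600 s progress curves, minus the uninhibited rate, are fit against inhibitor concentration. Reactions use 2 μM H2O2, 30 μM Amplex Red, pH 7.4 phosphate buffer with NaCl, DTPA and 2% DMSO, started with […] human MPO. Readout is resorufin fluorescence, catalase background subtracted.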

SMILES | MPO kinact/Ki
COCCn1c(-c2cccnc2OC)cc(=O)[nH]c1=S [Example 23, 1-(2-methoxyethyl)-6-(2-methoxypyridin-3-yl)-2-thioxo-2,3-dihydropyrimidin-4(1H)-one] | 991 1/s per M
COc1cc(OC)c(-c2cc(=O)[nH]c(=S)n2CCCN)cc1C [Example 105, 1-(3-aminopropyl)-6-(2,4-dimethoxy-5-methylphenyl)-2-thioxo-2,3-dihydropyrimidin-4(1H)-one hydrochloride] | 27300 1/s per M
COc1ccc(-c2cc(=O)[nH]c(=S)n2CCN)c(Cl)c1 [Example 61, 1-(2-aminoethyl)-6-(2-chloro-4-methoxyphenyl)-2-thioxo-2,3-dihydropyrimidin-4(1H)-one hydrochloride] | 3530 1/s per M
COc1ccc(-c2cc(=O)[nH]c(=S)n2CCNC(=O)CN)c(OC)c1 [Example 8, 2-amino-N-(2-(6-(2,4-dimethoxyphenyl)-4-oxo-2-thioxo-3,4-dihydropyrimidin-1(2H)-yl)ethyl)acetamide hydrochloride] | 12100 1/s per M
COc1ccc(OC)c(-c2cc(=O)[nH]c(=S)n2CCN=C(N)N)c1 [Example 121, 2-{2-[6-(2,5-dimethoxyphenyl)-4-oxo-2-thioxo-3,4-dihydropyrimidin-1(2H)-yl]ethyl}guanidine hydrochloride] | 15800 1/s per M
CCOc1ccccc1-c1cc(=O)[nH]c(=S)n1CCOC(C)C [Example 104, 6-(2-ethoxyphenyl)-1-(2-isopropoxyethyl)-2-thioxo-2,3-dihydropyrimidin-4(1H)-one] | 1210 1/s per M
COc1ccc(C)cc1-c1cc(=O)[nH]c(=S)n1CCCN=C(N)N [Example 119, 2-{3-[6-(2-methoxy-5-methylphenyl)-4-oxo-2-thioxo-3,4-dihydropyrimidin-1(2H)-yl]propyl} guanidine] | 25600 1/s per M
COc1ccc(Cl)cc1-c1cc(=O)[nH]c(=S)n1CCO [Example 64, 6-(5-chloro-2-methoxyphenyl)-1-(2-hydroxyethyl)-2-thioxo-2,3-dihydropyrimidin-4(1H)-one] | 22500 1/s per M
COc1ccc(-c2cc(=O)[nH]c(=S)n2CCCN)c(Cl)c1 [Example 91, 1-(3-aminopropyl)-6-(2-chloro-4-methoxyphenyl)-2-thioxo-2,3-dihydropyrimidin-4(1H)-one hydrochloride] | 9360 1/s per M
COc1nc2ccccc2cc1-c1cc(=O)[nH]c(=S)n1CCN [Example 97, 1-(2-aminoethyl)-6-(2-methoxyquinolin-3-yl)-2-thioxo-2,3-dihydropyrimidin-4(1H)-one trifluoroacetate] | 6310 1/s per M
COCCn1c(-c2cc(C)cnc2OC)cc(=O)[nH]c1=S [Example 51, 1-(2-methoxyethyl)-6-(2-methoxy-5-methylpyridin-3-yl)-2-thioxo-2,3-dihydropyrimidin-4(1H)-one] | 6180 1/s per M

Continued, values first:

MPO kinact/Ki | SMILES
767 1/s per M | COCCn1c(-c2ccco2)cc(=O)[nH]c1=S [Example 277, 6-(2-furyl)-1-(2-methoxyethyl)-2-thioxo-2,3-dihydropyrimidin-4(1H)-one]
1750 1/s per M | COCCn1c(-c2ccc(C)cc2)cc(=O)[nH]c1=S [Example 285, 1-(2-methoxyethyl)-6-(4-methylphenyl)-2-thioxo-2,3-dihydropyrimidin-4(1H)-one]
6740 1/s per M | COCCn1c(-c2cc3ccccc3o2)cc(=O)[nH]c1=S [Example 306, 6-(1-benzofuran-2-yl)-1-(2-methoxyethyl)-2-thioxo-2,3-dihydropyrimidin-4(1H)-one]
2790 1/s per M | COc1ccc(-c2cc(=O)[nH]c(=S)n2CC(C)O)c(OC)c1 (stereo not shown) [Example 179, 6-(2,4-dimethoxyphenyl)-1-(2-hydroxypropyl)-2-thioxo-2,3-dihydropyrimidin-4(1H)-one]
9080 1/s per M | COc1ccc(-c2cc(=O)[nH]c(=S)n2CC(O)CN)c(OC)c1 (stereo not shown) [Example 199, 1-(3-amino-2-hydroxypropyl)-6-(2,4-dimethoxyphenyl)-2-thioxo-2,3-dihydropyrimidin-4(1H)-one hydrochloride]
3620 1/s per M | COc1cccc(-c2cc(=O)[nH]c(=S)n2CCN)c1 [Example 264, 1-(2-aminoethyl)-6-(3-methoxyphenyl)-2-thioxo-2,3-dihydropyrimidin-4(1H)-one hydrochloride]
8180 1/s per M | COc1cc(-c2cc(=O)[nH]c(=S)n2CCO)c(OC)cc1C [Example 273, 6-(2,5-dimethoxy-4-methylphenyl)-1-(2-hydroxyethyl)-2-thioxo-2,3-dihydropyrimidin-4(1H)-one]
14400 1/s per M | COCCn1c(-c2cccc3ccoc23)cc(=O)[nH]c1=S [Example 307, 6-(1-benzofuran-7-yl)-1-(2-methoxyethyl)-2-thioxo-2,3-dihydropyrimidin-4(1H)-one]
4360 1/s per M | COc1ccc(-c2cc(=O)[nH]c(=S)n2Cc2ncn[nH]2)c(OC)c1 [Example 209, 6-(2,4-dimethoxyphenyl)-2-thioxo-1-(1H-1,2,4-triazol-5-ylmethyl)-2,3-dihydropyrimidin-4(1H)-one]
17800 1/s per M | COc1ccc(OC)c(-c2cc(=O)[nH]c(=S)n2CCO)c1 [Example 169, 6-(2,5-dimethoxyphenyl)-1-(2-hydroxyethyl)-2-thioxo-2,3-dihydropyrimidin-4(1H)-one]
793 1/s per M | COCCn1c(-c2ccc(OC)nc2)cc(=O)[nH]c1=S [Example 295, 1-(2-methoxyethyl)-6-(6-methoxypyridin-3-yl)-2-thioxo-2,3-dihydropyrimidin-4(1H)-one]
458 1/s per M | COc1ccc(-c2cc(=O)[nH]c(=S)n2CCC(=O)O)c(OC)c1 [Example 193, 3-[6-(2,4-dimethoxyphenyl)-4-oxo-2-thioxo-3,4-dihydropyrimidin-1(2H)-yl]propanoic acid]
963 1/s per M | COCCn1c(-c2cccc(OC)c2OC)cc(=O)[nH]c1=S [Example 329, 6-(2,3-dimethoxyphenyl)-1-(2-methoxyethyl)-2-thioxo-2,3-dihydropyrimidin-4(1H)-one]

same assay, conditions: Table 1A, 2 μM H2O2, pH 7.4

MPO kinact/Ki | SMILES
2310 1/s per M | NCCn1c(-c2ccccc2OC(F)(F)F)cc(=O)[nH]c1=S [Example 382, 1-(2-aminoethyl)-2-thioxo-6-[2-(trifluoromethoxy)phenyl]-2,3-dihydropyrimidin-4(1H)-one]
16000 1/s per M | COc1ccc(Cl)cc1-c1cc(=O)[nH]c(=S)n1CCCNC(=N)NCC(C)(F)F [Example 451, 1-{3-[6-(5-chloro-2-methoxyphenyl)-4-oxo-2-thioxo-3,4-dihydropyrimidin-1(2H)-yl]propyl}-3-(2,2-difluoropropyl)guanidine]
3310 1/s per M | COc1ccc(-c2cc(=O)[nH]c(=S)n2CCN(C)C(=O)CN)c(OC)c1 [Example 440, N-{2-[6-(2,4-dimethoxyphenyl)-4-oxo-2-thioxo-3,4-dihydropyrimidin-1(2H)-yl]ethyl}-N-methylglycinamide]
5360 1/s per M | NCCn1c(-c2cc(Cl)ccc2OCCO)cc(=O)[nH]c1=S [Example 427, 1-(2-aminoethyl)-6-[5-chloro-2-(2-hydroxyethoxy)phenyl]-2-thioxo-2,3-dihydropyrimidin-4(1H)-one]
